In data set [1] the target is T1, gpH3R (Cavia porcellus, UniProt Q9JI35).
T1 construct: from tissue; host or cells: isolated distal ileum of male guinea pigs
Nature of the data set: Ex vivo assay for histamine H3R antagonists on electrically stimulated guinea pig ileum. The protocol:
All newly synthesized compounds were evaluated as H3R antagonists/inverse agonists on the guinea pig ileum (gpH3R), stimulated electrically to induce contractions. The distinct affinity profile and species-dependent pharmacology of H3R ligands are known. […] Therefore, to compare species differences, all newly synthesized compounds were subjected to radioligand displacement assay in membrane fractions of HEK-293 cells stably expressing hH3R.
Ex vivo assay for histamine H3R and H1R antagonists were measured on the isolated guinea pig ileum stimulated to contractions by histamine. The pA2-values were calculated according to Arunlakshana and Schild. The radioligand-displacement binding assay was performed in membrane fractions of HEK-293 cells stably expressing hH3R. Cell cultivation and membrane preparation was performed according to Kottke et al.. The Ki values were calculated from the IC50 values using the Cheng–Prusoff equation [37]. The statistical calculations were performed on –log(Ki). […] The inhibitory activities of novel ADS compounds were assessed in spectrophotometric Ellman’s assay using AChE from electric eel (eeAChE) and BuChE from horse serum (eqBuChE).
3. Pharmacological assay results.
3.1. Ex vivo assay for histamine H3R receptor antagonists on guinea pig ileum.
Male guinea pigs, weighing 300-400 g were euthanized by a blow to the neck. Following this, a 20-30 cm length of the distal ileum, apart from the terminal 5 cm was rapidly removed and placed in phosphate buffer at room […]
indomethacin (Sigma-Aldrich, St. Louis, MO, USA) (1·10-6 mol/L). The intraluminal content was rinsed and the isolated intestine was cut into 1.5-2 cm segments. The preparations were mounted between two platinum electrodes […]
load of 1.0 g (Hugo Sachs Hebel-Messvorsatz (Tl-2)/HF-modem; Hugo Sachs Elektronik, Hugstetten, Germany) connected to a pen recorder (Kipp & Zonen BD41, Delft, Holland). During an equilibration period of 60 min, the Krebs buffer was changed every 10 min. The preparations were then continuously stimulated at 15-20 V at a frequency of 0.1 Hz for a duration of 0.5 ms, with rectangular-wave electrical pulses (Grass Stimulator S-88; Grass Instruments Co., Quincy, Massachusetts, USA). […] Five minutes […]
before (R)-(−)-α-methylhistamine (RAMH) (Toronto Research Chemicals Inc., North York, Canada), […]
added. The first cumulative concentration-response curve was determined to RAMH (10 nM – 10 mM) at an […]
The second to fourth curve was measured against increasing antagonist concentration (incubation time 20 min). The pA2-values were calculated according to Arunlakshana and Schild. [Br J Pharmacol Chemother. […] Statistical analysis was carried out with the Students’ t-test. In all tests, a p<0.05 was considered statistically significant. The pA2 values were compared with the affinity of thioperamide (Sigma-Aldrich, St. Louis, MO, USA).

For data set [2], the system named is MDA-MB-231 breast cancer cells. Nature of the data set: Apoptosis/necrosis detection (Annexin V-FITC/PI, image cytometry), MDA-MB-231. Type of data set: cell-based, human. Particulars: 48 h. The protocol:
The MTT test results prompted further study. Staining with propidium iodide and Annexin V-FITC was performed to distinguish apoptotic from necrotic cell death.
Apoptosis was analyzed using the NucleoCounter® NC-3000™ (Chemometec Inc., Lillerød, Denmark) according to the manufacturer’s protocol using Annexin V from Biotium (Fremont, CA, USA). MCF-7 and MDA-MB-231 cells were seeded into 6-well plates (2 × 10^5 cells/mL) and cultured until 70–80% confluence was reached. […] Scatter plots were used to determine the proportion of healthy cells (Annexin V-negative/PI-negative cells), early apoptotic cells (Annexin V-positive/PI-negative cells), late apoptotic cells (Annexin V-positive/PI-positive cells), and necrotic cells (Annexin V-negative/PI-positive cells). Data were derived from three independent experiments with three replicates.

Data set [3] relates to MCF-7 breast cancer cells. Kind of data set: cells. It counts as cell-based. The following applies: for IC50: Homo sapiens, MCF7, 48 h, read-out: MTT IC50 MCF-7. As to the method: (§1) The cell lines were obtained from American Type Culture Collection (ATCC, Manassas, VA, USA) and were cultured at 37 °C in the presence of 5% CO2 in the atmosphere. […] The cell’s morphology was examined under a Nikon Eclipse Ti inverted phase contrast microscope (Nikon, Tokyo, Japan). The authenticity of tested cell lines was verified by short tandem repeat (STR) genotyping in the Department of Forensic Medicine (Medical University of Lublin, Lublin, Poland).
(§2) Cell viability based on metabolic activity was evaluated with the MTT colorimetric test based on the ability of viable cells to cause the transformation of tetrazolium salts MTT (3-[4,5-dimethylthiazol-2-yl]-2,5)diphenyltetrazolium bromide) into purple formazan, by cellular dehydrogenases. The cells were seeded into 96-well plates at a concentration of 2 × 10^5 cells/mL. […] Doxorubicin was used for comparison as the standard chemotherapeutic agent used in breast cancer treatment. After 48 h of incubation cell cultures were supplemented with 20 µL of 5 mg/mL MTT (Thermofisher, Waltham, MA, USA) stock in PBS (Corning, NY, USA), and the incubation was continued for 4 h at 37 °C. Next, the medium with MTT was removed, and obtained crystals were dissolved in 200 µL of DMSO (dimethyl sulfoxide, Avantor, Gliwice, Poland). The solution absorbency was measured at 570 nm, using a PowerWave™ xs microplate spectrophotometer (BioTek Instruments, Winooski, VT, USA). The experiment was performed three times with three replicates for each concentration of tested compounds.

In data set [4] the test system is MDA-MB-231 breast cancer cells. Nature of the data set: cells. The following applies: Homo sapiens, MDA-MB-231, 48 h, read-out: MTT IC50 MDA-MB-231. It counts as cell-based. The protocol: as §1, §2
The target in data set [5] is T2, eeAChE (Electrophorus electricus, UniProt O42275).
T2 construct: purchased Sigma–Aldrich (Steinheim, Germany)
T2 sequence (O42275 24-633): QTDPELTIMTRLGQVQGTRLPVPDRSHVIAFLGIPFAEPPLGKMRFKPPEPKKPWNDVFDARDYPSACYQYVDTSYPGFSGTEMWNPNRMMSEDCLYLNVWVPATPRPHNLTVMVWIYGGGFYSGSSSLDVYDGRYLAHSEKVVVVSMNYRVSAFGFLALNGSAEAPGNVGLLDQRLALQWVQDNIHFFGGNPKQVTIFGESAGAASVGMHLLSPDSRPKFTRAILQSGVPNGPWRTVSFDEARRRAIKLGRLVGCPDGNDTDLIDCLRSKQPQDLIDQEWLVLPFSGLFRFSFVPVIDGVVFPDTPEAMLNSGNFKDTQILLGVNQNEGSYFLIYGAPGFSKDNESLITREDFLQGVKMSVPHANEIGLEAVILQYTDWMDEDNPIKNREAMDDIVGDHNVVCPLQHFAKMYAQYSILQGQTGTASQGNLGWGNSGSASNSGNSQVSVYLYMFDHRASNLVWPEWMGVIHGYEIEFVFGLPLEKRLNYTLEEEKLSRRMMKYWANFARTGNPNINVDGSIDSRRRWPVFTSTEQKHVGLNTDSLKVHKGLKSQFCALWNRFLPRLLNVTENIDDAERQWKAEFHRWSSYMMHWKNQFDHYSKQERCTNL
Kind of data set: biochemical. The arrangement: species or system electric eel. Particulars: 10 µM; read-out: eeAChE % inh. (10 µM) ± SD.

The values that follow come from PMC10223552 (Pharmaceuticals, 2023).

Several values for one entry are separate records, joined by “and”; a condition that tells them apart may be missing. Equal entries are not always repeated.

T1 sequence (Q9JI35 whole entry): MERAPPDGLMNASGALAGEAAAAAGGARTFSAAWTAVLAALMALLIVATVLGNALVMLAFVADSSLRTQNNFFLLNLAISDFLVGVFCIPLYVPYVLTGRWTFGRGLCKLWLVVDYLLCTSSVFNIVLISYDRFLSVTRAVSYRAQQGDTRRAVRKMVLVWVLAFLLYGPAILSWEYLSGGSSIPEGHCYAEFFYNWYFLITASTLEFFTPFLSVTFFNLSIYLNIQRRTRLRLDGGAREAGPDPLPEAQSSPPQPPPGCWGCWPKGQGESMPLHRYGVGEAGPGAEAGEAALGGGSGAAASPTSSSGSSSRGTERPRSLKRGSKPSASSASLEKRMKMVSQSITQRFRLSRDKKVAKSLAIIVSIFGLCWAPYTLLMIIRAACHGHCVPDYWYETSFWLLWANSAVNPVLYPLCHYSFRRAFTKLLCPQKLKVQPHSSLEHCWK

On to `N=C(N)N(CCCCN1CCN(CCCCCCCOc2ccccc2)CC1)Cc1ccccc1` [ADS1017], for which the “gpH3R pA2 ± sem” value in data set [1] (isolated guinea pig ileum, vs RAMH, 20 min) is on record as 8.21 ± 0.15. For the same molecule, in data set [2] (MDA-MB-231, IC50 concentration), the “early apoptotic cells (Q1lr)” value came out at 22% and the “late apoptotic cells (Q1ur)” value worked out at 39%. The IC50 (as a rule, the concentration needed to halve the response being measured) in data set [3] came out at 24.7 µM. Moreover, the IC50 in data set [4] amounted to 19.9 µM. For the same molecule, the inhibition at 10 µM in data set [5] amounted to 49.7 ± 0.7%.
For the molecule `Cl.Cl.N=C(NCCCCc1ccc(Cl)cc1)NCCCCN1CCCCC1` [ADS10310], in data set [1], the Kb (usually the equilibrium dissociation constant of an antagonist, usually derived from a functional assay) was 0.0191 µM. For the same molecule, the “mode of cell death (in words)” value in data set [2] (both breast cancer lines, IC50 concentration) is recorded as “mainly late apoptotic cells”. In addition, the IC50 in data set [3] was 82.9 µM; in data set [4], 115 µM. Besides, in data set [3] (MTT, 48 h, concentrations among 10-125 μM, column of each value cannot be told), the “Cell viability (%) ± SD, MCF-7” value was 79.57±1.33% and 60.51±1.86% and 57.12±1.54% and 44.21±3.24% and 39.79±2.76%. Besides, in data set [5], the inhibition at 10 µM came out at 7.3 ± 0.9%.
